Where two headings read alike, the source gives them in different places.
Tests used:
[1] = system: transgenic C. elegans strain CL2659; experiment: β-amyloid test system: delay of paralysis in transgenic C. elegans strain CL2659 (Alzheimer testing); type: in vivo, Caenorhabditis elegans; conditions: CL2659 stage L3 larvae, 48 hours, tested at 1 mg/ml, 100 μg/ml, 10 μg/ml, — = no effect even at 1 mg/ml; for minimal effective concentration: Caenorhabditis elegans, read-out: Alzheimer: concentration range in which a delay in paralysis was observed
Experimental: For this purpose, stage L3 worm larvae were used at a density of 10-20 worms per well. The expression of β-amyloid in the muscle cells was induced by increasing the temperature, and the associated paralysis was recorded at regular intervals until the end of the test after 48 hours.
(§1) For this purpose, the above substances were tested at concentrations of 1 mg/ml, 100 μg/ml, and 10 μg/ml in comparison with quercetin as a […] control.

[2] = system: transgenic C. elegans strain NL5901; experiment: α-synuclein test system: reduction of α-synuclein-GFP expression in transgenic C. elegans strain NL5901 (Parkinson testing); type: in vivo, Caenorhabditis elegans; conditions: NL5901, GFP readout 24 to 48 hours, tested at 1 mg/ml, 100 μg/ml, 10 μg/ml, — = no effect even at 1 mg/ml; for minimal effective concentration: Caenorhabditis elegans, read-out: Parkinson: concentration range in which a reduction in α-synuclein expression was detectable
Experimental: (§2) The same substances as above were tested in a 96-well procedure in the initially mentioned screening assay using the nematode Caenorhabditis elegans (Pretsch et al., see above) in a standardized α-synuclein test system using the transgenic C. elegans strain NL5901 for their potential suitability as an agent for treating Parkinson's disease. This worm strain expresses human α-synuclein bound to green fluorescent protein (GFP) in all muscle cells. GFP labeling allows a direct detection of expressed protein levels using a multiplate reader for 24 to 48 hours.
(§3) For this purpose, the substances were again tested at concentrations of 1 mg/ml, 100 μg/ml, and 10 μg/ml, but this time in comparison to the initially mentioned Parkinson therapeutic agent levodopa as a control.

Caenorhabditis elegans = experiment: C. elegans nematode assay, overall rating over the Alzheimer and Parkinson tests; type: in vivo; conditions: for minimal effective concentration: Caenorhabditis elegans, read-out: Score
Experimental: The substances (1) to (41) and (101) to (108), prepared in the above synthesis examples or purchased, were tested for their potential suitability as an agent for treating Alzheimer's disease in a 96-well procedure in the initially mentioned screening assay using the nematode Caenorhabditis elegans (Pretsch et al., see above) in a standardized β-amyloid test system using the transgenic C. elegans strain CL2659. For this purpose, stage L3 worm larvae were used at a density of 10-20 worms per well. The expression of β-amyloid in the muscle cells was induced by increasing the temperature, and the associated paralysis was recorded at regular intervals until the end of the test after 48 hours.
as §1, §2, §3

[3] = rating from the effective concentration in both tests

Structure (SMILES)	minimal effective concentration [1] [µg/mL]	minimal effective concentration [2] [µg/mL]	minimal effective concentration (Caenorhabditis elegans; [3]) [µg/mL]	minimal effective concentration (Caenorhabditis elegans) [µg/mL]	further results
NCCCNC(=O)CC(=O)N1CCCC2CCCCC21 (stereo not drawn) [(24), N-(3-aminopropyl)-N′-decahydroquinoline malonic acid diamide]	> 10	> 10	10 to 100		
COC(=O)C(C)C(=O)OC [(102), Methyl malonic acid dimethyl ester, reference compound]					efficacy in the C. elegans assay (Caenorhabditis elegans; both tests): neither dimethyl malonic acid (101) nor dimethyl malonic acid dimethyl ester (102) proved to be effective; Score (Caenorhabditis elegans; [3]): −
O=C(O)CC(=O)NC12CC3CC(CC(C3)C1)C2 [(17), N-(adamantan-1-yl)malonic acid amide]	> 10	> 10	10 to 100		
NCCCNC(=O)CC(=O)N1CCOCC1 [(22), N-(3-aminopropyl)-N′-morpholine malonic acid diamide]				10 to 100	
NCCCNC(=O)CC(=O)N1CCCc2ccccc21 [(108), N-(3-aminopropyl)-N′-tetrahydroquinoline malonic acid diamide]					efficacy in the C. elegans assay (Caenorhabditis elegans; both tests): ineffectiveness; Score (Caenorhabditis elegans; [3]): −
COC(=O)CC(=O)OC [(4), malonic acid dimethyl ester]	> 10	> 10	10 to 100		
NCCCC(=O)N1CCN(C(=O)CC(=O)OC23CC4CC(CC(C4)C2)C3)CC1 [(13), malonic acid adamantan-1-yl ester 4-(4-aminobutyryl)piperazine amide]	> 10	> 10	10 to 100		
OC12CC3CC(CC(C3)C1)C2 [(106), 1-Adamantanol, reference compound]					Score (Caenorhabditis elegans; [3]): −
CC12CC3CC(C)(C1)CC(NC(=O)CC(=O)N1CCN(CC(=O)N4CCOCC4)CC1)(C3)C2 [(41), N-(3,5-dimethyladamantan-1-yl)-N′-4-(2-morpholino-2-oxoethyl)piperazine malonic acid diamide]	> 10	> 10	10 to 100		concentration from which the compound was effective (Caenorhabditis elegans; both tests): > 10 µg/mL
NCCCNC(=O)C12CC3CC(CC(C3)C1)C2 [(103), 1-Adamantane carboxylic acid-N-(3-aminopropyl)amide, reference compound]					Score (Caenorhabditis elegans; [3]): −
COC(=O)CC(N)=O [(6), malonic acid methyl ester amide]					Alzheimer: concentration range in which a delay in paralysis was observed [1]: >100 µg/mL; Parkinson: concentration range in which a reduction in α-synuclein expression was detectable [2]: >100 µg/mL; Score (Caenorhabditis elegans; [3]): + (a compound that is only effective above 100 μg/ml and therefore rated “+”)
CC1(C)C2CCC(CNC(=O)CC(=O)NCCCN)C1C2 (stereo not drawn) [(26), N-(3-aminopropyl)-N′-(6,6-dimethylbicyclo[3.1.1]heptane-2-ylmethyl)malonic acid diamide]	> 10	> 10	10 to 100		
COc1ccccc1N1CCN(C(=O)CC(=O)OC23CC4CC(CC(C4)C2)C3)CC1 [(31), malonic acid adamantan-1-yl ester 4-(2-methoxyphenyl)piperazine amide]				10 to 100	
COC(=O)CC(=O)[O-].[K+] [(5), malonic acid methyl ester potassium salt]				10 to 100	
NCCCC(=O)NC1CCN(C(=O)CC(=O)OC23CC4CC(CC(C4)C2)C3)CC1 [(15), malonic acid adamantan-1-yl ester (4-(4-aminobutyryl)amino)piperidine amide]	> 10	> 10	10 to 100		
O=C(CC(=O)N1CCN(Cc2cccc(F)c2)CC1)OC12CC3CC(CC(C3)C1)C2 [(30), malonic acid adamantan-1-yl ester 4-(3-fluorobenzyl)piperazine amide]				10 to 100	
O=C(CC(=O)N1CCN(Cc2cccc(C(F)(F)F)c2)CC1)OC12CC3CC(CC(C3)C1)C2 [(29), malonic acid adamantan-1-yl ester 4-(3-trifluoromethylbenzyl)piperazine amide]				10 to 100	

Structure (SMILES)	minimal effective concentration [1] [µg/mL]	minimal effective concentration [2] [µg/mL]	minimal effective concentration (Caenorhabditis elegans; [3]) [µg/mL]	minimal effective concentration (Caenorhabditis elegans) [µg/mL]	further results
COc1ccc(N2CCN(C(=O)CC(=O)NC34CC5CC(C)(CC(C)(C5)C3)C4)CC2)cc1 [(39), N-(3,5-dimethyladamantan-1-yl)-N′-4-(4-methoxyphenyl)piperazine malonic acid diamide]				10 to 100	
O=C(CC(=O)N1CCNCC1)NC12CC3CC(CC(C3)C1)C2 [(20), N-adamantan-1-yl-N′-piperazine malonic acid diamide]	> 10	> 10	10 to 100		
COc1ccccc1N1CCN(C(=O)CC(=O)NC23CC4CC(C)(CC(C)(C4)C2)C3)CC1 [(38), N-(3,5-dimethyladamantan-1-yl)-N′-4-(2-methoxyphenyl)piperazine malonic acid diamide]					Alzheimer: concentration range in which a delay in paralysis was observed [1]: >100 µg/mL; Parkinson: concentration range in which a reduction in α-synuclein expression was detectable [2]: >100 µg/mL; Score (Caenorhabditis elegans; [3]): ++ (a compound that is already effective at a concentration >10 μg/ml and therefore rated “++”)
CC12CC3CC(C)(C1)CC(NC(=O)CC(=O)N1CCN(Cc4cccc(F)c4)CC1)(C3)C2 [(37), N-(3,5-dimethyladamantan-1-yl)-N′-4-(3-fluorobenzyl)piperazine malonic acid diamide]				10 to 100	
O=C(O)CC(=O)OC12CC3CC(CC(C3)C1)C2 [(10), malonic acid adamantan-1-yl ester N-(3-aminopropyl)amide]	> 10	> 10	10 to 100		
NC(=O)CC(N)=O [(2), malonic acid diamide]	> 10	> 10	10 to 100		
NCCCNC(=O)CC(=O)O [(7), N-(3-aminopropyl)malonic acid amide]	> 100	> 100	> 100		
NCCCNC(=O)CC(=O)NC12CC3CC(CC(C3)C1)C2 [(18), N-adamantan-1-yl-N′-(3-aminopropyl)malonic acid diamide]	> 100	> 100	> 100		
NC12CC3CC(CC(C3)C1)C2 [(107), 1-Adamantanamine, reference compound]					Score (Caenorhabditis elegans; [3]): −
CC(C)(C(=O)O)C(=O)O [(101), Dimethyl malonic acid, reference compound]					efficacy in the C. elegans assay (Caenorhabditis elegans; both tests): neither dimethyl malonic acid (101) nor dimethyl malonic acid dimethyl ester (102) proved to be effective; Score (Caenorhabditis elegans; [3]): −
CNCCCNC(=O)OC(C)(C)C [(105), 3-(Methylamino)propyl carbamic acid tert-butyl ester, reference compound]					Score (Caenorhabditis elegans; [3]): −
CC(C)(C)OC(=O)NCCCN [(104), 3-Aminopropyl carbamic acid tert-butyl ester, reference compound]					Score (Caenorhabditis elegans; [3]): −
NCCCNC(=O)CC(=O)N1CCCCC1 [(23), N-(3-aminopropyl)-N′-piperidine malonic acid diamide]				10 to 100	
O=C(CC(=O)N1CCNCC1)OC12CC3CC(CC(C3)C1)C2 [(12), malonic acid adamantan-1-yl ester piperazine amide]				10 to 100	
CC12CC3CC(C)(C1)CC(NC(=O)CC(=O)N1CCN(Cc4cccc(C(F)(F)F)c4)CC1)(C3)C2 [(36), N-(3,5-dimethyladamantan-1-yl)-N′-4-(3-trifluoromethylbenzyl)piperazine malonic acid diamide]				10 to 100	
CC12CC3CC(C)(C1)CC(NC(=O)CC(=O)N1CCNCC1)(C3)C2 [(35), N-(3,5-dimethyladamantan-1-yl)-N′-piperazine malonic acid diamide]				10 to 100	
COc1ccc(N2CCN(C(=O)CC(=O)NC34CC5CC(C)(CC(C)(C5)C3)C4)CC2)c(OC)c1 [(40), N-(3,5-dimethyladamantan-1-yl)-N′-4-(2,4-dimethoxyphenyl)piperazine malonic acid diamide]				10 to 100	

Source: patent publication US20260174721A1, “AGENT FOR RESTORING METAL HOMEOSTASIS” (Oxford Antibiotic Group GmbH, priority 2022, published 2026)
